Source: patent US20260001928A1 (CORTERIA PHARMACEUTICALS, priority 2022, published 2026)
*1 amine or outer side, *2 acyl side, *3 side chain or, on linkers, in order; H or OH if unused. Where a SMILES comes first, the peptide text is derived from it. Side-chain parts run from the residue outwards. [ ]: non-standard residue; d: D form. The star is where a group is joined. C20 diacid = O=C(O)CCCCCCCCCCCCCCCCCCC(=O)*; C18 diacid = O=C(O)CCCCCCCCCCCCCCCCC(=O)*; C16 diacid = O=C(O)CCCCCCCCCCCCCCC(=O)*; γGlu = O=C(O)[C@H](CCC(=O)[*:2])N[*:1]; C12 diacid = O=C(O)CCCCCCCCCCC(=O)*; NMeI = CC[C@H](C)[C@H](NC)C(=O)O; Myristoyl = CCCCCCCCCCCCCC(=O)*; αMeL = CC(C)C[C@](C)(N)C(=O)O; AEEA = NCCOCCOCC(=O)O; Aib = CC(C)(N)C(=O)O

Key:
human CRF2a receptor = molecular target: T1, human CRF2a receptor (Homo sapiens, UniProt Q13324); test: Activity at human CRF2a receptor, cAMP functional assay in TeloHEAC cells; type: cell-based; settings: TeloHEAC cells stably expressing human CRF2a receptor, relative to urocortin 2 (100 nM = 100%)
T1 construct: expressed in transfected cells; host or cells: TeloHEAC cells
T1 sequence (Q13324 1-411): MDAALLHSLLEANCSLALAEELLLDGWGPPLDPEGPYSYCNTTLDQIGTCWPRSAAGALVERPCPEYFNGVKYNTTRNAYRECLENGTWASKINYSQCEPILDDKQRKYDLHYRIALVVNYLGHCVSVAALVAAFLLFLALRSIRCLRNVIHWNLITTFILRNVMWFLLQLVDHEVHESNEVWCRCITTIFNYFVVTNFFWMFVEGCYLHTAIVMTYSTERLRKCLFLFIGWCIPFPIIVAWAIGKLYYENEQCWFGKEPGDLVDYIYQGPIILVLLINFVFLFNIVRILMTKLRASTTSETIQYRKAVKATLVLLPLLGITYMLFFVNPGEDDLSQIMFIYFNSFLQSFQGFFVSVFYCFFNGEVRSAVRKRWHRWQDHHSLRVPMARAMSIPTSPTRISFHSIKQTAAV
Experimental: Agonism of compounds for human corticotropin-releasing factor 2a (CRF2a receptor) was determined by a functional assay measuring cAMP modulation upon treatment of TeloHEAC cells stably expressing human CRF2a receptor. Compounds were dissolved at 0.5 mM in 100% DMSO and serially diluted (1:2) in 100% DMSO for 16 dilutions. 20 nL of each dilution was then transferred to 384-well assay plate using an acoustic droplet ejection instrument. 5 μL of compound buffer (1×HBSS; 20 mM HEPES,) were then added to each well. Prior to use, frozen cells were thawed quickly at 37° C. and washed (5 min at 900 rpm) with 20 mL cell buffer (1×HBSS; 20 mM HEPES). Cells were resuspended in cell buffer added with 2 mM IBMX and adjusted to a cell density of […]. 5 μL cells (final dell density: 10000 cells/well) were dispensed in the compound-containing 384-well assay plate and incubated for 30 minutes 37° C. The cAMP level in treated cells was determined using the Cisbio 62AM4PEC kit according to manufacturer's instruction. Finally, plates were incubated for 1 h at room temperature before measuring the fluorescence ratio between 665/620 nm. The percent activity value (E %) was calculated by setting 100 nM of urocortin 2 (UCN2) as 100%. The in vitro potency of the compounds was quantified by determining the concentrations that caused 50% activation of maximal response (EC50) relative to urocortin 2.

CFR1R receptor = molecular target: T2, CFR1R receptor (Homo sapiens, UniProt P34998); test: Activity at anti-target CFR1R receptor, cAMP assay in CRF1R-overexpression CHO-K1 cells; type: cell-based; settings: 100% = Sauvagine at 100 nM; for EC50: cAMP
T2 construct: host or cells: CHO-K1 (clone 2)
T2 sequence (P34998 24-415): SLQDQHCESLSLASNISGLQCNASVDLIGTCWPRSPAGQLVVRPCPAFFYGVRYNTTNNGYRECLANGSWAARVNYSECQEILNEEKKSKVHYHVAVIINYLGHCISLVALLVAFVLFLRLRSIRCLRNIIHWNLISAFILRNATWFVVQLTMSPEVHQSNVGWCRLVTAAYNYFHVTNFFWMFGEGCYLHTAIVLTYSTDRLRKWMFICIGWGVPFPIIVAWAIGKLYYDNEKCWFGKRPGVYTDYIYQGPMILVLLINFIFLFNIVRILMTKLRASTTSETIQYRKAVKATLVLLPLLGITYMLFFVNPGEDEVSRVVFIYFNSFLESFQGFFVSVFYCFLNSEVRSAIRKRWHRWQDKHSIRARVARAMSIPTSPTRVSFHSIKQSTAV
Outline: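 Run as for the TeloHAEC line, except the full-activation control well received Sauvagine (100 nM) and final density was 4000 cells/well. Cells from clone 2 came from frozen aliquots of near-confluent cultures.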

SMILES | EC50 (human CRF2a receptor) | Emax (% I) (CFR1R receptor) | EC50 (CFR1R receptor)
CCCCCCCCCCCCCC(=O)N[C@H](C(=O)N[C@@H](CC(C)C)C(=O)N[C@@H](CO)C(=O)N[C@@H](CC(C)C)C(=O)N[C@@H](CC(=O)O)C(=O)N[C@@H](C(=O)N1CCC[C@H]1C(=O)N[C@H](C(=O)N[C@@H](CCCCN)C(=O)N[C@@H](CC(C)C)C(=O)N[C@@H](CCCCNC(=O)CC[C@H](NC(=O)CCCCCCCCCCCCCCCCCCC(=O)O)C(=O)O)C(=O)N[C@@H](CCCCN)C(=O)N[C@H](C(=O)N[C@@H](CC(C)C)C(=O)N[C@@H](CC(C)C)C(=O)N[C@@H](CCC(=O)O)C(=O)N[C@@H](CCC(N)=O)C(=O)N[C@@H](CCC(=O)O)C(=O)N[C@@H](CCCCN)C(=O)N[C@@H](CCC(N)=O)C(=O)N[C@@H](CCCCN)C(=O)N[C@@H](CCCCN)C(=O)N[C@@H](CCC(N)=O)C(=O)N[C@@H](CCCNC(=N)N)C(=O)N[C@@H](CCC(=O)O)C(=O)N[C@@H](CCC(N)=O)C(=O)N[C@@H](C)C(=O)N[C@@H](CCC(=O)O)C(=O)N[C@H](C(=O)N[C@@H](CC(N)=O)C(=O)NC(C)(C)C(=O)N[C@@H](CCC(N)=O)C(=O)N[C@H](C(=O)N[C@@H](CC(C)C)C(=O)N[C@@H](C)C(=O)N[C@@H](CCC(N)=O)C(=O)N[C@H](C(N)=O)C(C)C)[C@@H](C)CC)[C@@H](C)O)[C@@H](C)CC)[C@@H](C)CC)C(C)C)C(C)C [compound 225] (Myristoyl-VLSLD[dV]PIKLK([γGlu-C20 diacid])KILLEQEKQKKQREQAETN[Aib]QILAQV-NH2) | 0.09 nM | 70 % I | –
CC[C@H](C)[C@H](NC(C)=O)C(=O)N[C@H](C(=O)N[C@@H](CC(C)C)C(=O)N[C@@H](CO)C(=O)N[C@@H](CC(C)C)C(=O)N[C@@H](CC(=O)O)C(=O)N[C@@H](C(=O)N1CCC[C@H]1C(=O)N[C@H](C(=O)N[C@@H](CCCCN)C(=O)N[C@@H](CC(C)C)C(=O)N[C@@H](CCCCNC(=O)CC[C@H](NC(=O)CCCCCCCCCCC(=O)O)C(=O)O)C(=O)N[C@@H](CCCCN)C(=O)N[C@H](C(=O)N[C@@H](CC(C)C)C(=O)N[C@@H](CC(C)C)C(=O)N[C@@H](CCC(=O)O)C(=O)N[C@@H](CCC(N)=O)C(=O)N[C@@H](CCC(=O)O)C(=O)N[C@@H](CCCCN)C(=O)N[C@@H](CCC(N)=O)C(=O)N[C@@H](CCCCN)C(=O)N[C@@H](CCCCN)C(=O)N[C@@H](CCC(N)=O)C(=O)N[C@@H](CCCNC(=N)N)C(=O)N[C@@H](CCC(=O)O)C(=O)N[C@@H](CCC(N)=O)C(=O)N[C@@H](C)C(=O)N[C@@H](CCC(=O)O)C(=O)N[C@H](C(=O)N[C@@H](CC(N)=O)C(=O)NC(C)(C)C(=O)N[C@@H](CCC(N)=O)C(=O)N[C@H](C(=O)N[C@@H](CC(C)C)C(=O)N[C@@H](C)C(=O)N[C@@H](CCC(N)=O)C(=O)N[C@H](C(N)=O)C(C)C)[C@@H](C)CC)[C@@H](C)O)[C@@H](C)CC)[C@@H](C)CC)C(C)C)C(C)C [compound 182] (Ac-IVLSLD[dV]PIKLK([γGlu-C12 diacid])KILLEQEKQKKQREQAETN[Aib]QILAQV-NH2) | 1.88 nM | 1 % I | > 250 nM
CC[C@H](C)[C@H](NC)C(=O)N[C@H](C(=O)N[C@@H](CC(C)C)C(=O)N[C@@H](CO)C(=O)N[C@@H](CC(C)C)C(=O)N[C@@H](CC(=O)O)C(=O)N[C@@H](C(=O)N1CCC[C@H]1C(=O)N[C@H](C(=O)N[C@@H](CCCCN)C(=O)N[C@@H](CC(C)C)C(=O)N[C@@H](CCCCNC(=O)CC[C@H](NC(=O)CCCCCCCCCCCCCCCCCCC(=O)O)C(=O)O)C(=O)N[C@@H](CCCCN)C(=O)N[C@H](C(=O)N[C@@H](CC(C)C)C(=O)N[C@@H](CC(C)C)C(=O)N[C@@H](CCC(=O)O)C(=O)N[C@@H](CCC(N)=O)C(=O)N[C@@H](CCC(=O)O)C(=O)N[C@@H](C)C(=O)N[C@@H](CCC(N)=O)C(=O)N[C@@H](CCCCN)C(=O)N[C@@H](CCCCN)C(=O)N[C@@H](CCC(N)=O)C(=O)N[C@@H](CCCNC(=N)N)C(=O)N[C@@H](CCC(=O)O)C(=O)N[C@@H](CCC(N)=O)C(=O)N[C@@H](C)C(=O)N[C@@H](CCC(=O)O)C(=O)N[C@H](C(=O)N[C@@H](CC(N)=O)C(=O)NC(C)(C)C(=O)N[C@@H](CCC(N)=O)C(=O)N[C@H](C(=O)N[C@@H](CC(C)C)C(=O)N[C@@H](C)C(=O)N[C@@H](CCC(N)=O)C(=O)N[C@H](C(N)=O)C(C)C)[C@@H](C)CC)[C@@H](C)O)[C@@H](C)CC)[C@@H](C)CC)C(C)C)C(C)C [compound 216] (H-[NMeI]VLSLD[dV]PIKLK([γGlu-C20 diacid])KILLEQEAQKKQREQAETN[Aib]QILAQV-NH2) | 0.05 nM | 61 % I | –
CC[C@H](C)[C@H](NC(C)=O)C(=O)N[C@H](C(=O)N[C@@H](CC(C)C)C(=O)N[C@@H](CO)C(=O)N[C@@H](CC(C)C)C(=O)N[C@@H](CC(=O)O)C(=O)N[C@H](C(=O)N1CCC[C@H]1C(=O)N[C@H](C(=O)N[C@@H](CCCCN)C(=O)N[C@@](C)(CC(C)C)C(=O)N[C@@H](CCCCNC(=O)CC[C@H](NC(=O)CCCCCCCCCCCCCCC(=O)O)C(=O)O)C(=O)N[C@@H](CCC(N)=O)C(=O)NC(C)(C)C(=O)N[C@@H](CC(C)C)C(=O)N[C@@H](CC(C)C)C(=O)N[C@@H](CCCCN)C(=O)N[C@@H](CCC(N)=O)C(=O)N[C@@H](CCC(=O)O)C(=O)N[C@@H](CCCNC(=N)N)C(=O)N[C@@H](CCC(N)=O)C(=O)N[C@@H](CCCCN)C(=O)N[C@@H](CCCCN)C(=O)N[C@@H](CCC(N)=O)C(=O)N[C@@H](CCCNC(=N)N)C(=O)N[C@@H](CCC(=O)O)C(=O)N[C@@H](CCC(N)=O)C(=O)N[C@@H](C)C(=O)N[C@@H](CCC(=O)O)C(=O)N[C@@H](CCCCN)C(=O)N[C@@H](CC(N)=O)C(=O)NC(C)(C)C(=O)N[C@@H](CCC(N)=O)C(=O)N[C@H](C(=O)N[C@@H](CC(C)C)C(=O)N[C@@H](CCC(=O)O)C(=O)N[C@@H](CCC(N)=O)C(=O)N[C@H](C(N)=O)C(C)C)[C@@H](C)CC)[C@@H](C)CC)C(C)C)C(C)C [compound 20] (Ac-IVLSLDVPIK[αMeL]K([γGlu-C16 diacid])Q[Aib]LLKQERQKKQREQAEKN[Aib]QILEQV-NH2) | 1.09 nM | 3 % I | > 250 nM
CC[C@H](C)[C@H](NC(=O)[C@H](CCC(N)=O)NC(=O)[C@H](C)NC(=O)[C@H](CC(N)=O)NC(=O)[C@@H](NC(=O)[C@H](CCC(=O)O)NC(=O)[C@H](C)NC(=O)[C@H](CCC(N)=O)NC(=O)[C@H](CCC(=O)O)NC(=O)[C@H](CCCNC(=N)N)NC(=O)[C@H](CCC(N)=O)NC(=O)[C@H](CCCCN)NC(=O)[C@H](CCCCN)NC(=O)[C@H](CCC(N)=O)NC(=O)[C@H](CCCCN)NC(=O)[C@H](CCC(=O)O)NC(=O)[C@H](CCC(N)=O)NC(=O)[C@H](CCC(=O)O)NC(=O)[C@H](CC(C)C)NC(=O)[C@H](CC(C)C)NC(=O)[C@@H](NC(=O)[C@H](CCCCN)NC(=O)[C@H](CCCCNC(=O)COCCOCCNC(=O)COCCOCCNC(=O)CC[C@H](NC(=O)CCCCCCCCCCCCCCCCC(=O)O)C(=O)O)NC(=O)[C@H](CC(C)C)NC(=O)[C@H](CCCCN)NC(=O)[C@@H](NC(=O)[C@@H]1CCCN1C(=O)[C@H](NC(=O)[C@H](CC(=O)O)NC(=O)[C@H](CC(C)C)NC(=O)[C@H](CO)NC(=O)[C@H](CC(C)C)NC(=O)[C@@H](NC(C)=O)C(C)C)C(C)C)[C@@H](C)CC)[C@@H](C)CC)[C@@H](C)O)C(=O)N[C@@H](CC(C)C)C(=O)N[C@@H](C)C(=O)N[C@@H](CCC(N)=O)C(=O)N[C@H](C(N)=O)C(C)C [compound 101] (Ac-VLSLD[dV]PIKLK([AEEA-AEEA-γGlu-C18 diacid])KILLEQEKQKKQREQAETNAQILAQV-NH2) | 1.74 nM | 0 % I | > 250 nM
